Publication PMC6271559, “Synthesis and Evaluation of 2,4-Disubstituted Quinazoline Derivatives with Potent Anti-Angiogenesis Activities” (Molecules, 2014)
Like-named read-outs stand apart in the source and are kept apart here.

Assays:
[1] = tested on: PC-3 (human prostatic carcinoma) cells; assay: MTT cytotoxicity assay, PC-3; assay type: cell-based; details: Prostatic carcinoma cell, 48 h, mean of three independent assays
Excerpt: (§1) In the early 80s, scientists proposed anti-angiogenesis as a potential target in cancer therapy. Much research in the past 30 years has targeted tumor angiogenesis as a means of inhibiting the process of tumor-caused blood vessel formation. Endothelial cells, which come from the inner lining of blood vessels, makes up a fundamental part of new blood vessels as well as pre-existing ones. A complete angiogenesis process includes the proliferation, migration, and differentiation of endothelial cells, so a great deal of angiogenesis inhibitors discovered to date target endothelial cells. We thus employed a cell proliferation assay to evaluate the cytotoxicity of quinazoline derivatives against both normal (HUVEC) and tumor cell lines (CNE-2, PC-3, and SMMC-7721 cell lines) so we can screen some molecules that have cytotoxicity against tumor cells but low cytotoxicity against HUVECs. Meanwhile, an appropriate concentration range of these compounds could be determined to further study their inhibitive effects against the proliferation, migration, and differentiation of HUVECs. The cytotoxic activities of quinazoline derivatives against human tumor cell lines CNE-2 (human nasopharyngeal cancer), PC-3 (human prostatic carcinoma), SMMC-7721 (human liver cancer) and Human Umbilical Vein Endothelial Cells (HUVECs) were determined by using the MTT cytotoxicity assay.
(§2) HUVEC, CNE-2, PC-3, and 7721 cell lines were seeded on 96-well plates at a concentration of 5,000 cells per well and exposed to various concentrations of quinazoline derivatives. After 48 h of treatment at 37 °C in a humidified atmosphere of 5% CO2, 5 mg/mL MTT solution (10 μL) was added to each well and further incubated for 4 h. Each well was then added dimethyl sulfoxide (DMSO, 100 μL), and the optical density (OD) was recorded at 490 nm. All measurements were done in triplicate, and the IC50 values were derived from the mean OD values of the triplicate tests versus drug concentration curves.

[2] = tested on: HUVEC adhesion to collagen; assay: HUVEC adhesion assay on type I collagen; assay type: cell-based, human; details: adhesion of HUVEC on collagen, 37 °C; for inhibition at 15 µM / inhibition at 30 µM: Homo sapiens, HUVEC
Excerpt: A perfect angiogenesis inhibitor must be show lower toxicity toward HUVECs, while showing high inhibitive capability towards the proliferation, migration, and differentiation of HUVECs. To assess the inhibitory effects of 2,4-disubstituted quinazoline derivatives, three assays were used: HUVEC adhesion assay, HUVEC migration assay and CAM assay. Firstly, to test the inhibitory effects of quinazoline derivatives on the attachment of endothelial cells to type I collagen, cell adhesion assays were carried out.
Cell adhesion assay was carried out by a reported method with slight modification. Wells of a 96-well plate were coated at room temperature overnight with rat trail tendon collagen type I (2 μg) in PBS in a final volume of 100 μL. The wells were washed three times with PBS ([…]) and then blocked with 0.2% bovine serum albumin (BSA) in PBS ([…]) for 2 h at 37 °C in a cell culture incubator. The wells were then washed three times with PBS ([…]). HUEVCs were detached from the dish, resuspended in DMEM, and added (50 μL, 10^4 cells/mL) to each well followed by the related compounds (50 μL) at various concentrations. The plates were incubated for 1 h or 3 h at 37 °C and then washed three times with PBS (100 μL). The attached cells were fixed and stained with 0.2 % crystal violet in 20% methanol for 10 min, then washed three times with PBS ([…]). The cells were solubilized by 2% SDS and the OD was measured at 570 nm. Attachment was determined by both 1 and 3 h as described above. Each compound was tested in triplicate and each experiment was repeated three times.

[3] = tested on: CNE-2 (human nasopharyngeal cancer) cells; assay: MTT cytotoxicity assay, CNE-2; assay type: cell-based; details: 48 h, mean of three independent assays
Excerpt: as §1, §2

[4] = tested on: SMMC-7721 (human liver cancer) cells; assay: MTT cytotoxicity assay, SMMC-7721; assay type: cell-based; details: 48 h, mean of three independent assays
Excerpt: as §1, §2

[5] = MTT cytotoxicity assay, HUVEC; assay type: cell-based; details: human, HUVEC (human umbilical vein endothelial cells), mean of three independent assays
Excerpt: as §1, §2

[6] = 1 h, 1 h, 15 μM, read-out: 1 h Inhibition Rate % Dose 15 μM
[7] = 1 h, 1 h, 30 μM, read-out: 1 h Inhibition Rate % Dose 30 μM
[8] = 3 h, 3 h, 15 μM, read-out: 3 h Inhibition Rate % Dose 15 μM
[9] = 3 h, 3 h, 30 μM, read-out: 3 h Inhibition Rate % Dose 30 μM

Row | SMILES | IC50 [1] | inhibition at 15 µM [2, 6] | inhibition at 30 µM [2, 7] | inhibition at 15 µM [2, 8] | inhibition at 30 µM [2, 9] | melting point | IC50 [3] | IC50 [4] | IC50 at 48 h [5] | 3 h Inhibition Rate % Dose 15 μM ([2]; 3 h, 15 μM) | 3 h Inhibition Rate % Dose 30 μM ([2]; 3 h, 30 μM)
1 | CN(C)CCCNc1nc(-c2ccccc2NC(=O)CN2CCCC2)nc2ccccc12 [Compound 10b, N-(2-(4-(3-(dimethylamino)propylamino)quinazolin-2-yl)phenyl)-2-(pyrrolidin-1-yl)acetamide] | 16.7 ± 0.2 µM | 28.3 ± 0.1% | 33 ± 0.2% | 27.8 ± 0.2% | 34.8 ± 0.2% | 174 to 175 °C | 14.9 ± 0.2 µM | 17.9 ± 0.4 µM | 39.3 ± 0.3 µM | – | –
2 | CCN(CC)CC(=O)Nc1ccccc1-c1nc(NCCCN(C)C)c2ccccc2n1 [Compound 10c, N-(2-(4-(3-(Dimethylamino)propylamino)quinazolin-2-yl)phenyl)-2-(diethylamino)acetamide] | 17.6 ± 0.1 µM | 18.9 ± 0.3% | 27.8 ± 0.2% | 16.4 ± 0.4% | 29.5 ± 0.1% | – | 17.1 ± 0.4 µM | 19.4 ± 0.1 µM | 56.2 ± 0.2 µM | – | –
3 | CN(C)CCCNc1nc(-c2ccccc2NC(=O)CCN2CCCC2)nc2ccccc12 [Compound 11b, N-(2-(4-(3-(Dimethylamino)propylamino)quinazolin-2-yl)phenyl)-3-(pyrrolidin-1-yl)propanamide] | 17.4 ± 0.1 µM | 35.4 ± 0.3% | 54.3 ± 0.3% | 35.2 ± 0.3% | 51.7 ± 0.2% | 163 to 165 °C | 14.3 ± 0.1 µM | 15.1 ± 0.2 µM | 46.3 ± 0.3 µM | – | –
4 | CN(C)CCCNc1nc(-c2ccccc2NC(=O)CCCN2CCCCC2)nc2ccccc12 [Compound 12a, N-(2-(4-(3-(Dimethylamino)propylamino)quinazolin-2-yl)phenyl)-4-(piperidin-1-yl)butanamide] | 17.7 ± 0.2 µM | 33.6 ± 0.2% | 57.9 ± 0.3% | 40.6 ± 0.3% | 61.2 ± 0.3% | 159 to 160 °C | 17.3 ± 0.3 µM | 16.5 ± 0.1 µM | 41.7 ± 0.3 µM | – | –
5 | CCN(CC)CCC(=O)Nc1ccccc1-c1nc(NCCCN(C)C)c2ccccc2n1 [Compound 11c, N-(2-(4-(3-(Dimethylamino)propylamino)quinazolin-2-yl)phenyl)-3-(diethylamino)propanamide] | 18.7 ± 0.3 µM | 29.9 ± 0.2% | 38.7 ± 0.2% | 29.4 ± 0.2% | 36.3 ± 0.4% | 158 to 160 °C | 16.8 ± 0.4 µM | 13.8 ± 0.1 µM | 66.8 ± 0.3 µM | – | –
6 | CN(C)CCCNc1nc(-c2ccccc2NC(=O)CCN2CCOCC2)nc2ccccc12 [Compound 11e, N-(2-(4-(3-(Dimethylamino)propylamino)quinazolin-2-yl)phenyl)-3-morpholinopropanamide] | 19.6 ± 0.2 µM | 27.4 ± 0.3% | 32.3 ± 0.2% | 25.6 ± 0.3% | 36.4 ± 0.3% | 165 to 167 °C | 20.1 ± 0.2 µM | 20.9 ± 0.3 µM | 84.9 ± 0.3 µM | – | –
7 | CN(C)CCCNc1nc(-c2ccccc2NC(=O)CCN2CCCCC2)nc2ccccc12 [Compound 11a, N-(2-(4-(3-(Dimethylamino)propylamino)quinazolin-2-yl)phenyl)-3-(piperidin-1-yl)propanamide] | 18.1 ± 0.2 µM | 37.4 ± 0.3% | 49.6 ± 0.5% | 38.2 ± 0.1% | 59.3 ± 0.1% | 178 to 179 °C | 14.2 ± 0.1 µM | 19.9 ± 0.4 µM | 57.4 ± 0.5 µM | – | –
8 | CN(C)CCCNc1nc(-c2ccccc2NC(=O)CN2CCOCC2)nc2ccccc12 [Compound 10e, N-(2-(4-(3-(Dimethylamino)propylamino)quinazolin-2-yl)phenyl)-2-morpholinoacetamide] | 20.5 ± 0.3 µM | – | 14.3 ± 0.1% | 7.9 ± 0.3% | 17.6 ± 0.3% | 179 to 181 °C | 19.7 ± 0.2 µM | 22.6 ± 0.2 µM | 79.8 ± 0.1 µM | – | –
9 | CN(C)CCCNc1nc(-c2ccccc2NC(=O)CCCN2CCCC2)nc2ccccc12 [Compound 12b] | 18.9 ± 0.4 µM | 29.8 ± 0.1% | 49.3 ± 0.1% | 38.4 ± 0.2% | 60.1 ± 0.2% | – | 16.4 ± 0.3 µM | 15.3 ± 0.2 µM | 39.4 ± 0.1 µM | – | –
10 | CN(C)CCCNc1nc(-c2ccccc2NC(=O)CCCN2CCOCC2)nc2ccccc12 [Compound 12e, N-(2-(4-(3-(Dimethylamino)propylamino)quinazolin-2-yl)phenyl)-4-morpholinobutanamide] | 21.9 ± 0.2 µM | 26.5 ± 0.2% | 34.7 ± 0.2% | 17.2 ± 0.4% | 39.4 ± 0.2% | 152 to 154 °C | 20.6 ± 0.2 µM | 20.8 ± 0.3 µM | 76.3 ± 0.2 µM | – | –
11 | CN(C)CCCNc1nc(-c2ccccc2NC(=O)CN2CCN(C)CC2)nc2ccccc12 [Compound 10d, N-(2-(4-(3-(Dimethylamino)propylamino)quinazolin-2-yl)phenyl)-2-(4-methylpiperazin-1-yl)acetamide] | 11.3 ± 0.5 µM | 34.8 ± 0.2% | 44.6 ± 0.4% | – | 63.4% | 174 to 175 °C | 10.5 ± 0.3 µM | 10.4 ± 0.1 µM | 38.7 ± 0.1 µM | 32.5 ± 0.4% | 47.2 ± 0.1%
